Data taken from patent US20050215548A1 (Cyclacel Limited, priority 2002, published 2005).
Where two headings read alike, the source gives them in different places.

How the values were obtained:
WI38 = test: 72-h MTT cytotoxicity assay, WI38; type: cell-based; conditions: Homo sapiens, WI-38, 72 h; WI38, Lung fibroblasts; read-out: Anti-proliferative activity, 72-h MTT IC50
Description: (§1) Representative bisarylsulfonamide compounds were tested on a panel of transformed and non-transformed human cell lines, using a standard 72-h MTT cytotoxicity assay [Haselsberger K et al, ibid].

Saos-2 = test: 72-h MTT cytotoxicity assay, Saos-2; type: cell-based; conditions: Homo sapiens, Saos-2, Osteosracoma, read-out: Anti-proliferative activity, 72-h MTT IC50
Description: as §1

HS27 = test: 72-h MTT cytotoxicity assay, HS27; type: cell-based; conditions: Homo sapiens, HS27, Foreskin fibroblasts, read-out: Anti-proliferative activity, 72-h MTT IC50
Description: as §1

AGS = test: 72-h MTT cytotoxicity assay, AGS; type: cell-based; conditions: Homo sapiens
Summary of the method: (§2)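 Compounds were incubated with three human tumour lines chosen for genetic contrast, then viability was scored by MTT reduction. AGS is gastric with intact p53, SJSA-1 is bone sarcoma bearing intact p53 and amplified HDM2 expression, and H1299 is lung carcinoma without p53.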

SKUT-1 = test: 72-h MTT cytotoxicity assay, SKUT-1; type: cell-based; conditions: Homo sapiens, SK-UT-1, 72 h; SKUT-1, Uterus leiomyosarcoma; read-out: Anti-proliferative activity, 72-h MTT IC50
Description: as §1

carcinoma cell lines = test: 72-h MTT panel, average carcinomas; type: cell-based; conditions: Homo sapiens, average over carcinoma cell lines, read-out: Anti-proliferative activity, 72-h MTT IC50, Average carcinomas
Description: as §1
(§3) This differential selectivity further supports the notion that the bisarylsulfonamides modulate cellular HDM2 function. It is known that HDM2 amplification is particularly common in soft tissue sarcomas and osteosarcomas [Momand J et al, ibid; Bartel F, Meye A, Wurl P, Kappler M, Bache M, Lautenschlager C, Grunbaum U, Schmidt H, Taubert H; Int. J. Cancer 2001; 95: 168-175].

HT29 = test: 72-h MTT cytotoxicity assay, HT29; type: cell-based; conditions: Homo sapiens, HT-29, 72 h; HT29, Colon adenocarcinoma; read-out: Anti-proliferative activity, 72-h MTT IC50
Description: as §1

p53 = p53 reporter gene assay (U2OS-derived luciferase reporter cell line); conditions: for Fold induction of luciferase activity: compared to basal luciferase activity, 16-h time point, at concentration of maximal induction; for Concentration (test compound concentration at which the p53 induction was maximal): p53 reporter, U2OS-derived cell line
IMR90 = test: 72-h MTT cytotoxicity assay, IMR90; type: cell-based; conditions: Homo sapiens, IMR-90, 72 h; IMR90, Lung fibroblasts; read-out: Anti-proliferative activity, 72-h MTT IC50
Description: as §1

SJSA-1 = test: 72-h MTT cytotoxicity assay, SJSA-1; type: cell-based; conditions: Homo sapiens
Summary of the method: as §2

HeLa = test: 72-h MTT cytotoxicity assay, HeLa; type: cell-based; conditions: Homo sapiens, Cervical carcinoma, read-out: Anti-proliferative activity, 72-h MTT IC50
Description: as §1

U2OS = test: 72-h MTT cytotoxicity assay, U2OS; type: cell-based; conditions: Homo sapiens, Osteosracoma, read-out: Anti-proliferative activity, 72-h MTT IC50
Description: as §1

SK-N-MC = test: 72-h MTT cytotoxicity assay, SK-N-MC; type: cell-based; conditions: Homo sapiens, Neuriepithelioma, read-out: Anti-proliferative activity, 72-h MTT IC50
Description: as §1

H1299 = test: 72-h MTT cytotoxicity assay, H1299; type: cell-based; conditions: Homo sapiens
Summary of the method: as §2

[1] = system: non-transformed human cell lines; test: 72-h MTT panel, average non-transformed; type: cell-based; conditions: average over non-transformed cell lines, read-out: Anti-proliferative activity, 72-h MTT IC50, Average non-transformed
Description: as §1, §3

Nci-H460 = test: 72-h MTT cytotoxicity assay, Nci-H460; type: cell-based; conditions: Homo sapiens, Nci-H460, Large cell lung carcinoma, read-out: Anti-proliferative activity, 72-h MTT IC50
Description: as §1

MCF7 = test: 72-h MTT cytotoxicity assay, MCF7; type: cell-based; conditions: Homo sapiens, MCF7, Breast adenocarcinoma, read-out: Anti-proliferative activity, 72-h MTT IC50
Description: as §1

HDM2 = target: T1, HDM2 (Homo sapiens, UniProt Q00987); test: Fluorescence polarisation competitive HDM2 binding assay
T1 construct: Recombinant HDM2 (1.5 μg per well) in TBS-BSA buffer
T1 sequence (Q00987 whole entry): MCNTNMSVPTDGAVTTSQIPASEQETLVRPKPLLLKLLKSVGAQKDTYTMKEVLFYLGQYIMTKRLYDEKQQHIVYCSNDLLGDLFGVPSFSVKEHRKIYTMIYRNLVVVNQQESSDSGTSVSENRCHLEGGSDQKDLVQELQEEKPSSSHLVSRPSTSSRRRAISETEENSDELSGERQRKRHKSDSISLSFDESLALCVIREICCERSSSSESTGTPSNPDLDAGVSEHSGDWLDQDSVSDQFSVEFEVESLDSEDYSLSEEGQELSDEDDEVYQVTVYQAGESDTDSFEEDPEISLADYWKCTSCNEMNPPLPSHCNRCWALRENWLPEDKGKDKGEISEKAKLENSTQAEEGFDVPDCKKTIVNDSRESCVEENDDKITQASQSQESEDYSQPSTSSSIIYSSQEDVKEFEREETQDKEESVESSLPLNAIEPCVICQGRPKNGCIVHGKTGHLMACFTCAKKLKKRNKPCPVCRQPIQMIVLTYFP
Summary of the method: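 Recombinant HDM2 (1.5 μg/well) was preincubated 5 min at room temperature with serially diluted compound in 50 mM Tris pH 7.4, 150 mM NaCl, 0.1% BSA, 5% DMSO final. Fluorescein-labelled p53 peptide (0.2 μM) was then added for 45 min. Polarisation was read at 485/520 nm and IC50 derived from dose-response curves.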

[2] = system: transformed human cell lines; test: 72-h MTT panel, average transformed; type: cell-based; conditions: average over transformed cell lines, read-out: Anti-proliferative activity, 72-h MTT IC50, Average transformed
Description: as §1, §3

sarcoma cell lines = test: 72-h MTT panel, average sarcomas; type: cell-based; conditions: Homo sapiens, average over sarcoma cell lines, read-out: Anti-proliferative activity, 72-h MTT IC50, Average sarcomas
Description: as §1, §3

A549 = test: 72-h MTT cytotoxicity assay, A549; type: cell-based; conditions: Homo sapiens, A549, Lung carcinoma, read-out: Anti-proliferative activity, 72-h MTT IC50
Description: as §1

DU145 = test: 72-h MTT cytotoxicity assay, DU145; type: cell-based; conditions: Homo sapiens, DU-145, 72 h; DU145, Prostate carcinoma; read-out: Anti-proliferative activity, 72-h MTT IC50
Description: as §1

NaCat = test: 72-h MTT cytotoxicity assay, NaCat; type: cell-based; conditions: Keratinocyte, Human keratinocytes, read-out: Anti-proliferative activity, 72-h MTT IC50
Description: as §1

HCT116 = test: 72-h MTT cytotoxicity assay, HCT116; type: cell-based; conditions: Homo sapiens, HCT-116, 72 h; HCT116, Colon carcinoma; read-out: Anti-proliferative activity, 72-h MTT IC50
Description: as §1

Messa = test: 72-h MTT cytotoxicity assay, Messa; type: cell-based; conditions: Homo sapiens, MES-SA, Uterus sarcoma, read-out: Anti-proliferative activity, 72-h MTT IC50
Description: as §1

Messa-Dx5 = test: 72-h MTT cytotoxicity assay, Messa-Dx5; type: cell-based; conditions: Homo sapiens, MES-SA/Dx5, 72 h; Messa-Dx5, Uterus sarcoma; read-out: Anti-proliferative activity, 72-h MTT IC50
Description: as §1

Lovo = test: 72-h MTT cytotoxicity assay, Lovo; type: cell-based; conditions: Homo sapiens, Colon adenocarcinoma, read-out: Anti-proliferative activity, 72-h MTT IC50
Description: as §1

[3] = system: AGS, H1299, MCF7 or SJSA1 cells; test: Cell morphology (cell rounding); type: cell-based, human; conditions: five times IC50
Text: Equal amounts of cell lysate were separated by SDS-PAGE and analysed by immunoblotting using the indicated antibodies. An estimation of the extent of cell rounding is indicated above each lane. The arrow indicates the position of a 85-kDa cleavage product of PARP, indicative of apoptosis. (B) The effect of compound 2 on the levels of the cell cycle proteins in AGS cells (wild-type 53). […] Equal amounts of cell lysate were separated by SDS-PAGE and analysed by immunoblotting using the indicated antibodies. An estimation of the extent of cell rounding is indicated above each lane. (C) The effect of negative control compound (refer Example 10), compound 2, cisplatin, and anisomycin on the levels of key proteins in MCF7 cells. […] Cisplatinum and anisomycin (a transcription inhibitor) treatments were with 50 μM or 37 μM, respectively. Cells were harvested at various time points; afterwards lysates were prepared and separated by SDS-PAGE and analysed by immunoblotting. The proteins detected are indicated. The extent of rounded or floating cells and the percentage viable cells were assessed. […] Equal amounts of cell lysate were separated by SDS-PAGE and analysed by immunoblotting using a range of antibodies. An estimation of the extent of cell rounding is indicated above each lane. […] SJSA1 cells were treated with 5 times [IC50] of compound 2 and collected at the indicated time points. Equal amounts of cell lysate were separated by SDS-PAGE and analysed by immunoblotting using a range of antibodies. An estimation of the extent of cell rounding is indicated above each lane.
Cells were treated with 5 times [IC50] of compound 2 and collected at various time points. The percentage of rounded cells was counted before cells were trypsinised and counted for cell viability using trypan blue.
Cells were lysed and equal amounts were analysed by SDS-polyacrylamide gel electrophoresis (SDS-PAGE) and immunoblotting. […] The reduction in E2F-1 levels correlated with reduction in E2F transcriptional activity as determined by an E2F-dependent luciferase reporter assay (refer Example 6).

[4] = system: E2F transcription factors; test: E2F reporter gene assay (A549-derived luciferase reporter cell line); type: cell-based; conditions: Homo sapiens; after 3-h treatment with test compounds; read-out: IC50 E2F reporter, Non-synchronised cells
Description: A similar system to the p53 reporter assay described above was used, with the exception that it was designed to be responsive to E2F transcription factors rather than p53. An A549-derived cell line stably transfected with an E2F response element and a luciferase reporter gene was created. The genetic expression cassette construct used was from Clontech (Mercury™ Cell Cycle Profiling System). Assays were carried out as described above.
Representative bisarylsulfonamides were tested in the E2F gene reporter assay described in Example 6.

[5] = 72-h MTT, Table 1, read-out: IC50 Anti-proliferative effect on cell line AGS
[6] = NCI-H1299, 72-h MTT, Table 1, read-out: IC50 Anti-proliferative effect on cell line H 1299
[7] = fluorescence polarisation assay, Table 3, read-out: In vitro competitive HDM2 binding assay IC50
[8] = fluorescence polarisation format, Table 1, read-out: IC50 In vitro competitive HDM2 binding assay

`CN(c1ccc(F)cc1)S(=O)(=O)c1cc([N+](=O)[O-])c(Cl)s1` [Compound 7] showed an IC50 (WI38) of 52.3 µM, an IC50 (Saos-2) of 13.3 µM and an IC50 (HS27) of 39.2 µM. It also gave an IC50 (AGS; [5]) of 7 ± 1.3 µM, an IC50 (AGS; 72 h, Gastric adenocarcinoma, Table 2, read-out: Anti-proliferative activity, 72-h MTT IC50) of 5 µM and an IC50 (SKUT-1) of 6.1 µM. For the same molecule, the IC50 (carcinoma cell lines) was 9.7 ± 4.7 µM, the IC50 (HT29) was 4.6 µM and the “Fold induction of luciferase activity” value (p53) was 32 fold. The “Concentration (test compound concentration at which the p53 induction was maximal)” value (p53) was 9 µM, the IC50 (IMR90) was 41.8 µM and the IC50 (SJSA-1; 72 h, SJSA-1, Osteosracoma, Table 2, read-out: Anti-proliferative activity, 72-h MTT IC50) was 17 µM. For the same molecule, the IC50 (SJSA-1; SJSA-1, 72-h MTT, Table 1, read-out: IC50 Anti-proliferative effect on cell line SJSA-4) was 9.3 ± 2.7 µM, the IC50 (HeLa) was 13.7 µM and the IC50 (U2OS) was 8.8 µM. The IC50 (SK-N-MC) was 3 µM, the IC50 (H1299; NCI-H1299, 72 h, H1299, Large cell lung carcinoma, Table 2, read-out: Anti-proliferative activity, 72-h MTT IC50) was 14 µM and the IC50 (H1299; [6]) was 12.9 ± 0.7 µM. The IC50 [1] was 44.6 ± 6.9 µM, the IC50 (Nci-H460) was 9.6 µM and the IC50 (MCF7) was 11.2 µM. It also gave an IC50 (HDM2; [7]) of 15.4 ± 7.8 µM, an IC50 (HDM2; [8]) of 15.4 ± 7.8 µM and an IC50 [2] of 10.2 ± 4.4 µM. For the same molecule, the IC50 (sarcoma cell lines) was 11.3 ± 3.7 µM, the IC50 (A549) was 19.3 µM and the IC50 (DU145) was 9.1 µM. The IC50 (NaCat) was 12.9 µM, the IC50 (HCT116) was 12.2 µM and the IC50 (Messa) was 8.1 µM. It also gave an IC50 (Messa-Dx5) of 7.6 µM and an IC50 (Lovo) of 8.5 µM.

In the case of `CC(Cc1c[nH]c2ccccc12)NS(=O)(=O)c1cc([N+](=O)[O-])c(Cl)s1` (centres unmarked) [Compound 49, 5-Chloro-4-nitrothiophene-2-sulfonic acid [2-(1H-indol-3-yl)-1-methylethyl]amide], the IC50 (AGS; [5]) is reported as 2.2 ± 2.3 µM, the cell rounding [3] is reported as “even more rapid cell rounding” and the IC50 [4] is reported as 36.3 ± 2.9 µM. For the same molecule, the “Fold induction of luciferase activity” value (p53) was 117 fold, the “Concentration (test compound concentration at which the p53 induction was maximal)” value (p53) was 5.5 µM and the IC50 (SJSA-1; SJSA-1, 72-h MTT, Table 1, read-out: IC50 Anti-proliferative effect on cell line SJSA-1) was 2 ± 0.2 µM. For the same molecule, the IC50 (H1299; [6]) was 1.5 ± 0.4 µM, the IC50 (HDM2; [7]) was 46.3 ± 4 µM and the IC50 (HDM2; [8]) was 46.3 ± 4 µM.
